Results on 1 molecule are retold here after paper PMC8752837, “Structural basis of BAK activation in mitochondrial apoptosis initiation” (Nature Communications, 2022).

The target in one assay is T1, GST-BAK (Homo sapiens, UniProt Q16611).
T1 construct: made in house
T1 sequence (Q16611 1-211): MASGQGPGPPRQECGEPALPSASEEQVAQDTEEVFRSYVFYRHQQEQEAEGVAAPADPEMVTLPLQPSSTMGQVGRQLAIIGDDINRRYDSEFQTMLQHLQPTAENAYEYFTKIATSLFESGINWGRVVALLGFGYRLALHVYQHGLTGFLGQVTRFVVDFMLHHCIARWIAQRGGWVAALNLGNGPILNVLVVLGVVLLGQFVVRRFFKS
Description: Competitive fluorescence polarization assay (displacement of BID BH3 SAHB-F). Type of assay: binding. The following applies: competitive FP. From the text: We also tested the monosubstituted peptides in competitive fluorescence polarization (FP) binding assays, which measure displacement from GST-BAK of BID BH3 stabilized alpha helix of BCL-2 proteins (SAHB) C-terminally tagged with fluorescein and thus informs on peptide binding affinity.
We carried out fluorescence polarization assays, measuring the displacement of the fluorescent peptide BID BH3 SAHB-F from GST-BAK, in 384-well Greiner black polystyrene plates with flat bottom (Sigma-Aldrich). Master mix consisted of 50 mM Tris-HCl pH 7.5, 50 mM KCl, 0.1 mg/mL BSA, 2 mM DTT, 0.005% Tween-20, 10 nM BID BH3 SAHB-F, and 1 µM GST-BAK. We pin transferred peptides using Biomek FX (Beckman Coulter Life Sciences, IN) to achieve final concentration of 500−0.2 µM in 20 µL final volume. We gently centrifuged plates to remove air bubbles for 1 min at 1000 rpm, and incubated them for 60 min at RT. […] Free peptide controls in each plate consisted of only BID BH3 SAHB-F and bound peptide controls containing BID BH3 SAHB-F + GST-BAK. We derived Z’-values using the equation [1 − 3(stdev^L + stdev^H)]/(average^H − average^L), where L is the free peptide control and H is the bound peptide control. […] We processed and visualized data using the software Robust Investigation of Screening Experiments (RISE) developed in house in the Pipeline Pilot platform (Accelrys, v.8.5.0). We performed at least three independent dose-response experiments for each peptide. We estimated IC50 values in RISE and GraphPad Prism v.8.0a.
A general note: Polarisation of emitted light reports the rotation of a fluorescent probe.

Another assay has as its target T2, WT tevBAK (Homo sapiens, UniProt Q16611).
T2 construct: To generate tevBAK (residues 22–186), we cleaved off the histidine tag with TEV protease; His tag (vector pNIC28-Bsa4) (N, cleaved yes); made in house; host or cells: E. coli T7 Express pLac I/Y
T2 sequence (Q16611 22-186): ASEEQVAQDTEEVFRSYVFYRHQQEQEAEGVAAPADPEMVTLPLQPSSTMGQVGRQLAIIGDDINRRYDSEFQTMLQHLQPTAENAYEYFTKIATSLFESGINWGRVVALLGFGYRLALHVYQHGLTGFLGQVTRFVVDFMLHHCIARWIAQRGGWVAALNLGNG
Description: Isothermal titration calorimetry. The following applies: 25 °C; single site binding model. It counts as binding. As for the experimental part:
Protein samples were exchanged into 20 mM HEPES, 100 mM NaCl and 1 mM TCEP prior to the experiment. Titrations were performed by first injecting 0.5 μl of 250 or 500 µM BID BH3 peptides into a solution of 20 or 50 µM BAK followed by additional 2 μl injections. […] Results were analyzed using Origin software (OriginLab) provided by MicroCal. Binding constants (KD) and thermodynamic parameters were calculated from the average of two or three individual titrations by fitting the data to a single site binding model using a nonlinear least-squares fitting algorithm.
For orientation: In ITC the heat of successive injections is recorded.

A further assay concerns the target T3, Human BAK-∆TM-His6 (BAK) (Homo sapiens, UniProt Q16611).
T3 construct: C-terminus truncated recombinant human BAK containing C-terminal 6× histidine tag (MEAS-BAK); made in house; host or cells: E. coli T7 Express pLac I/Y
T3 sequence (Q16611 1-186 limits assumed): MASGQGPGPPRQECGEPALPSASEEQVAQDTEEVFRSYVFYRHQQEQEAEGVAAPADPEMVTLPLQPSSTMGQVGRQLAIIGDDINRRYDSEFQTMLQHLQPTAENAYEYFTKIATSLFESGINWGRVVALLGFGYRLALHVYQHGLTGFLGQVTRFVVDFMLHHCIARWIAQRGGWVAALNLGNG
The following applies: ref Moldoveanu et al NSMB (2013) 20:589; cited from earlier work. From the text:
page 33: helix 1 to be important, and the idea that this could be achieved through somewhat different molecular interactions is neither surprising nor novel. We appreciate the reviewer’s viewpoint but respectfully disagree. We clarify the distinction between W(3)W(5) BID BH3 and BIM-h3Pc-RT inactivated complexes by explaining that stabilization of helix 1 is through indirect contacts in the former (allosteric) and through direct contact in the latter “glue-like” complex. This distinction is now discussed in the highlighted region on pg. 16 being key for the design of small molecule BH3 mimetic ...

Where two headings read alike, the source gives them in different places.

For the molecule `CC[C@H](C)[C@H](NC(=O)[C@H](CO)NC(=O)[C@H](CCCNC(=N)N)NC(=O)[C@H](CC(=O)O)NC(=O)[C@H](CCSC)NC(=O)[C@H](CO)NC(=O)[C@H](CC(=O)O)NC(=O)CNC(=O)[C@@H](NC(=O)[C@H](CCC(N)=O)NC(=O)[C@H](C)NC(=O)[C@H](CC(C)C)NC(=O)[C@H](Cc1c[nH]cn1)NC(=O)[C@H](CCCNC(=N)N)NC(=O)[C@H](C)NC(=O)[C@@H](NC(=O)[C@H](CC(N)=O)NC(=O)[C@H](CCCNC(=N)N)NC(=O)[C@@H](NC(=O)[C@@H](NC(=O)[C@H](CC(=O)O)NC(=O)[C@H](CCC(=O)O)NC(C)=O)[C@@H](C)CC)[C@@H](C)CC)[C@@H](C)CC)C(C)C)C(N)=O` [WT BID BH3, reference compound], the half-maximal inhibitory concentration (IC50) (as a rule, the concentration that inhibits the measured activity by half) at GST-BAK (Experiment-1) is given as 12.73 µM; at GST-BAK (Experiment-2), 6.926 µM; at GST-BAK (Experiment-3), 15.45 µM; at GST-BAK (Experiment-4) it was 8.804 µM; on GST-BAK (Experiment-5), 11 µM; at GST-BAK (Experiment-6), 9.271 µM. Further, the IC50 on GST-BAK (Experiment-7) worked out at 11.57 µM; at GST-BAK (Experiment-9), 22.17 µM; on GST-BAK (mean of the experiments (replicated 4-9 times), read-out: IC50 Mean), 12.2 µM. In addition, the “ITC -T∆S” value on WT tevBAK was found to be 0.41 ± 0.11 kcal/mol. The “ITC ∆G” value at WT tevBAK is -6.34 ± 0.04 kcal/mol. In addition, the “ITC ∆H” value at WT tevBAK is -6.75 ± 0.07 kcal/mol. In addition, the “fold less potent than activated full-length BID (N/C BID)” value on Human BAK-∆TM-His6 (BAK) was ~ 100 x.
